Assay results from US9809555B2, “Form of mefenpyr-diethyl, a process for its preparation and use of the same” (ROTAM AGROCHEM INTERNATIONAL COMPANY LIMITED, priority 2015, dated 2017).

Experiments:
[1] = Stability test: accelerated storage of formulations (CIPAC MT 46.3), mefenpyr-diethyl content by HPLC before and after aging; format: physicochemical; conditions: stored at 54° C. for 1 week
Protocol: The stability of the mefenpyr-diethyl in these compositions was determined by aging samples in heated ovens having the same atmosphere therein, and then comparing the mefenpyr-diethyl content before and after aging to determine relative percentage of hydrolysis (RPH). RPH was calculated by the following equation: […]
Mefenpyr-diethyl content was determined by assaying the compositions with high-pressure liquid chromatography (HPLC) using reverse phase columns and eluants.
Samples prepared in Examples 4, 5 and 6 were stored at 54° C. for 1 week. The procedures are followed according to CIPAC MT 46.3. The concentration of mefenpyr-diethyl was measured at the end of each storage time by HPLC.

[2] = General stability of mefenpyr-diethyl forms (hydrolysis in water or on storage); format: physicochemical; conditions: dissolved or dispersed in water, or during storage exposed to moisture, result in words
Excerpt: It will generally undergo significant hydrolysis when dissolved or dispersed in water. Furthermore, hydrolysis can occur during storage, particularly where the compound is exposed to moisture. As a result, the stability of mefenpyr-diethyl is of great concern with respect to providing the commercially available formulations. Therefore, there is a need to provide a novel form mefenpyr-diethyl with increased stability in formulations.
Accordingly, in an embodiment, the invention provides a novel crystalline form of mefenpyr-diethyl, termed “crystalline modification I”, and a process for its preparation, as well as its use in agrochemical compositions. […] Accordingly, in an embodiment, the invention also provides compositions for controlling undesirable plant growth, such as weeds, comprising the crystalline modification I of mefenpyr-diethyl with sulfonylurea herbicides, as a mixture with auxiliaries and carriers. The use of the crystalline modification I of mefenpyr-diethyl with sulfonylurea herbicides in the control of undesired plant growth and a method for the same are also provided by embodiments of the invention.

[3] = Example 4 oil based suspension concentrate (OD) with iodosulfuron-methyl-sodium, 10 weight % mefenpyr-diethyl
[4] = Example 5 soluble granules (SG) with mesosulfuron-methyl, 7 weight % mefenpyr-diethyl
[5] = Example 6 water dispersible granules (WG) with iodosulfuron-methyl-sodium, 7 weight % mefenpyr-diethyl

SMILES | RPH % (relative percentage of hydrolysis) [1, 3] [%] | RPH % (relative percentage of hydrolysis) [1, 4] [%] | RPH % (relative percentage of hydrolysis) [1, 5] [%] | stability (hydrolysis) ([2]; listed as mefenpyr-diethyl in amorphous state) | stability (hydrolysis) [2]
CCOC(=O)C1=NN(c2ccc(Cl)cc2Cl)C(C)(C(=O)OCC)C1 (racemic) [Amorphous mefenpyr-diethyl, diethyl (RS)-1-(2,4-dichlorophenyl)-5-methyl-2-pyrazoline-3,5-dicarboxylate] | 50 | 40 | 45 | highly unstable | –
CCOC(=O)C1=NN(c2ccc(Cl)cc2Cl)C(C)(C(=O)OCC)C1 (racemic) [Mefenpyr-diethyl, crystalline modification I] [diethyl (RS)-1-(2,4-dichlorophenyl)-5-methyl-2-pyrazoline-3,5-dicarboxylate] | 0 | 0 | 0 | – | increased stability relative to the amorphous form
